These results are taken from ChEMBL document CHEMBL1201862, “PubChem BioAssay data set” (2004).

Test systems include SF-295; OVCAR-3; NCI-H522; MDA-N; OVCAR-8; HCT-15; BT-549; HT-29; SW-620; PC-3; HCC 2998; A549; EKVX; UACC-62; M14; NCI-H460; Hs-578T; KM12; HCT-116; A498.
Assay in all cases: NCI anticancer screen, dose series, 48 h

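Compound exposure: 48 hours, 5 concentrations, 96-well plates. GI50: concentration for 50% inhibition of growth.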 Active and inactive are the calls of the source. Cut-off read from the data, not from the text of the source: active = GI50 up to about 1.1 µM and inactive = higher.

Consider `CCn1cc(C(=O)O)c(=O)c2cc(F)c(N3CCN(CN4C(=O)/C(=N\c5ncc(Cc6cc(OC)c(OC)c(OC)c6)c(N)n5)c5cc(Cl)ccc54)CC3)cc21`, for which the GI50 in the assay on SF-295 is > 100 µM (inactive); with OVCAR-3, > 100 µM (inactive); in the assay on NCI-H522, > 100 µM (inactive); in the assay with MDA-N, 45.5 µM (inactive); in the assay on OVCAR-8, > 100 µM (inactive); in the assay on HCT-15, 91.6 µM. Also, the GI50 in the assay with BT-549 was > 100 µM (inactive); in the assay on HT-29, > 100 µM (inactive); with SW-620 it was 5.3 µM (inactive); with PC-3, > 100 µM (inactive); with HCC 2998 it was 42.2 µM (inactive); in the assay on A549, > 100 µM (inactive). Also, the GI50 with EKVX was > 100 µM (inactive); in the assay with UACC-62, > 100 µM (inactive); in the assay with M14, > 100 µM (inactive); with NCI-H460 it was > 100 µM (inactive); in the assay on Hs-578T it was > 100 µM (inactive); in the assay with KM12, 50.2 µM (inactive). Also, the GI50 in the assay on HCT-116 was 74.3 µM (inactive); in the assay on A498, > 100 µM (inactive).
Regarding `CC1(C)C2CCC1(CS(=O)(=O)Nc1ccccc1)C(=O)C2` (stereo not given), the GI50 with SF-295 is > 100 µM (inactive); in the assay on OVCAR-3 it was > 100 µM (inactive); with NCI-H522, > 100 µM (inactive); in the assay with MDA-N, > 100 µM (inactive); with OVCAR-8, > 100 µM (inactive); with HCT-15, over 100 µM. Moreover, the GI50 in the assay with BT-549, in the assay on HT-29, in the assay with SW-620, in the assay with PC-3, in the assay with HCC 2998 and with A549 was > 100 µM (inactive) in each case. In addition, the GI50 in the assay with EKVX, with UACC-62, with M14, in the assay with NCI-H460, with Hs-578T and in the assay on KM12 was > 100 µM (inactive) in each case. Moreover, the GI50 with HCT-116 and with A498 was > 100 µM (inactive) each time.
For `CSc1cc(N)ccc1/N=N/c1ccc(S(N)(=O)=O)cc1`, the GI50 is 22.1 µM (inactive) in the assay with SF-295; 25.1 µM (inactive) in the assay on OVCAR-3; 17.7 µM (inactive) in the assay on NCI-H522; 61.7 µM (inactive) with MDA-N; 22.3 µM (inactive) with OVCAR-8; 21.8 µM in the assay on HCT-15. Moreover, the GI50 was 6.4 µM (inactive) in the assay with BT-549; 30.3 µM (inactive) in the assay with HT-29; 41.7 µM (inactive) in the assay on SW-620; 32.7 µM (inactive) in the assay on PC-3; 53.6 µM (inactive) in the assay with HCC 2998; 22.1 µM (inactive) in the assay on A549. In addition, the GI50 is 31 µM (inactive) in the assay on EKVX; 15.9 µM (inactive) in the assay with UACC-62; 38.1 µM (inactive) in the assay with M14; 24.2 µM (inactive) with NCI-H460; 23.5 µM (inactive) in the assay with Hs-578T; 30.4 µM (inactive) in the assay on KM12. Moreover, the GI50 in the assay on HCT-116 was 30.5 µM (inactive); in the assay with A498, 48 µM (inactive).
For the compound `COC(=O)c1ccccc1CC1Cc2cc3c(cc2C1=O)CCC3` (stereo not given), the GI50 in the assay with SF-295 was 14.6 µM (inactive); in the assay with OVCAR-3, 13.1 µM (inactive); with NCI-H522, 5.28 µM (inactive); in the assay on MDA-N, 1.93 µM (inactive); with OVCAR-8 it was 20.1 µM (inactive); with HCT-15, 4.02 µM. In addition, the GI50 in the assay with BT-549 was 10.8 µM (inactive); with HT-29, 8.71 µM (inactive); with SW-620, 3.82 µM (inactive); in the assay on PC-3 it was 11.1 µM (inactive); in the assay with HCC 2998 it was > 41.1 µM (inactive); in the assay with A549, 20.3 µM (inactive). Moreover, the GI50 in the assay with EKVX was 25.8 µM (inactive); with UACC-62 it was 9.77 µM (inactive); in the assay on M14 it was 10.4 µM (inactive); in the assay on NCI-H460, 29.7 µM (inactive); in the assay on Hs-578T it was 19.6 µM (inactive); in the assay on KM12, 8.67 µM (inactive). The GI50 in the assay on HCT-116 is 5.32 µM (inactive); in the assay with A498, 11.7 µM (inactive).
As to `CN(C(=O)c1ccc(Cl)s1)C(=S)N(C)C(=O)c1ccc(Cl)s1`, the GI50 is > 10 µM (inactive) in the assay with SF-295; > 10 µM (inactive) in the assay on OVCAR-3; > 10 µM (inactive) with NCI-H522; > 10 µM (inactive) with MDA-N; > 10 µM (inactive) in the assay on OVCAR-8; over 10 µM with HCT-15. Moreover, the GI50 with BT-549, with HT-29, in the assay with SW-620, in the assay with PC-3, with HCC 2998 and in the assay with A549 was > 10 µM (inactive) in each case. In addition, the GI50 in the assay on EKVX, in the assay with UACC-62, with M14, in the assay on NCI-H460, in the assay with Hs-578T and with KM12 was > 10 µM (inactive) each time. Further, the GI50 with HCT-116 and with A498 was > 10 µM (inactive) throughout.
As for `Clc1cc(Br)c2c3c(c(Br)cc(Cl)c13)C(Br)=C2Br`, the GI50 in the assay with SF-295 was > 100 µM (inactive); in the assay with OVCAR-3, 30.3 µM (inactive); with NCI-H522, 17.2 µM (inactive); with MDA-N, 42.3 µM (inactive); in the assay with OVCAR-8, 31 µM (inactive); in the assay on HCT-15, 18.6 µM. Moreover, the GI50 in the assay on BT-549 was 38.7 µM (inactive); in the assay on HT-29, 25.2 µM (inactive); with SW-620, 34.2 µM (inactive); in the assay on PC-3 it was 26.7 µM (inactive); with HCC 2998, 18.3 µM (inactive); in the assay on A549, 55.8 µM (inactive). In addition, the GI50 with EKVX is 28.6 µM (inactive); in the assay on UACC-62, 23.2 µM (inactive); with M14 it was 28.2 µM (inactive); with NCI-H460 it was 40.7 µM (inactive); in the assay on Hs-578T, 33.1 µM (inactive); with KM12, 45.8 µM (inactive). Besides, the figures for the GI50 with HCT-116 and with A498 were 21.2 µM (inactive) and > 100 µM (inactive), respectively.
`c1ccc(C2C3=C(CCCC3)Nc3nc4cc5ccccc5cc4n32)cc1` (stereo not given): the GI50 in the assay with SF-295 is > 100 µM (inactive); with OVCAR-3, > 100 µM (inactive); with NCI-H522, > 100 µM (inactive); in the assay with MDA-N, > 100 µM (inactive); with OVCAR-8, > 100 µM (inactive); in the assay with HCT-15, over 100 µM. The GI50 in the assay with BT-549, in the assay with HT-29, in the assay on SW-620, in the assay on PC-3, in the assay with HCC 2998 and in the assay with A549 was > 100 µM (inactive) each time. Further, the GI50 with EKVX, in the assay on UACC-62, in the assay on M14, in the assay with NCI-H460, with Hs-578T and in the assay on KM12 was > 100 µM (inactive) in each case. The GI50 with HCT-116 and with A498 was > 100 µM (inactive) throughout.
